Experimental data published in patent US8017611B2, “Pyridine and pyrazine derivatives -083” (AstraZeneca AB, priority 2007, dated 2011).
pIC50: −log10 of the molar value.

Biological target: T1, recombinant Axl tyrosine kinase (Homo sapiens, UniProt P30530)
T1 construct: encompassing amino acids 473 to 894 of Axl; GST (N); made in house; host or cells: SF126 insect cells
T1 sequence (P30530 473-894): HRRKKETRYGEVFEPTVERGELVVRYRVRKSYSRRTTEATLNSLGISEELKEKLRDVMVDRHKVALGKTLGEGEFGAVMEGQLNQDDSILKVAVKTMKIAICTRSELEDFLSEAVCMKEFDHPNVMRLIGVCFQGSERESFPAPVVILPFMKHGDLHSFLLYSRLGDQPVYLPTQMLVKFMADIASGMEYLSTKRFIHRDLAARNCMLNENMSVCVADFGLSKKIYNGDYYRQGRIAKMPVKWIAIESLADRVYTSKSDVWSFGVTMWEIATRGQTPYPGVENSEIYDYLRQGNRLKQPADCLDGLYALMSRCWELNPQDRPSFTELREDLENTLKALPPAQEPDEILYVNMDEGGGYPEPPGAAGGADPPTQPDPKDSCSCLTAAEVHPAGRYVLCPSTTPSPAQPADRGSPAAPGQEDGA
Test: In vitro Axl kinase assay (AlphaScreen), Test (a)
Assay type: biochemical
Settings: for inhibition at 1 µM / % Axl tyrosine kinase inhibition at 1 μM concentration: test compound at 1 μM, first value quoted; for inhibition at 1 µM: read-out: % Axl tyrosine kinase inhibition at 1 μM concentration

Row | % Axl tyrosine kinase inhibition at 1 μM concentration | Compound | also measured
1 | – | COCCOC(=O)N1CCC(n2cc(-c3cnc(N)c(-c4nc5ncccc5o4)c3)cn2)CC1 [Example 54, 2-methoxyethyl 4-[4-(6-amino-5-oxazolo[4,5-b]pyridin-2-yl-3-pyridyl)pyrazol-1-yl]piperidine-1-carboxylate] | inhibition at 1 µM: 99.5%
2 | 99.0% | CS(=O)(=O)N1CCC(n2cc(-c3cnc(N)c(-c4nc5ncccc5o4)c3)cn2)CC1 [Example 55.1] | –
3 | 98.8% | Nc1ncc(-c2cnn(C3CCN(S(=O)(=O)C4CC4)CC3)c2)cc1-c1nc2ncccc2o1 [Example 55.2] | –
4 | 99.5% | COC(=O)N1CCC(n2cc(-c3cnc(N)c(-c4nc5ncccc5o4)c3)cn2)CC1 [Example 55.3] | –
5 | – | COCC(=O)N1CCC(n2cc(-c3cnc(N)c(-c4nc5ncccc5o4)c3)cn2)CC1 [Example 56, 1-[4-[4-(6-amino-5-oxazolo[4,5-b]pyridin-2-yl-3-pyridyl)pyrazol-1-yl]-1-piperidyl]-2-methoxy-ethanone] | inhibition at 1 µM: 99.3%
6 | 98.5% | CC(=O)N1CCC(n2cc(-c3cnc(N)c(-c4nc5ncccc5o4)c3)cn2)CC1 [Example 57.1] | –
7 | 99.4% | Nc1ncc(-c2cnn(C3CCN(C(=O)CO)CC3)c2)cc1-c1nc2ncccc2o1 [Example 57.2] | –
8 | 98.7% | C[C@H](O)C(=O)N1CCC(n2cc(-c3cnc(N)c(-c4nc5ncccc5o4)c3)cn2)CC1 [Example 57.3] | –
9 | 99.3% | CC(=O)N1CCC(n2cc(-c3cnc(N)c(-c4nc5cccnc5o4)c3)cn2)CC1 [Example 57.4] | –
10 | 99.8% | COCC(=O)N1CCC(n2cc(-c3cnc(N)c(-c4nc5cccnc5o4)c3)cn2)CC1 [Example 57.5] | –
11 | 99.8% | Nc1ncc(-c2cnn(C3CCN(C(=O)CO)CC3)c2)cc1-c1nc2cccnc2o1 [Example 57.6] | –
12 | 99.6% | C[C@H](O)C(=O)N1CCC(n2cc(-c3cnc(N)c(-c4nc5cccnc5o4)c3)cn2)CC1 [Example 57.7] | –
13 | – | CN(C)CC(=O)N1CCC(n2cc(-c3cnc(N)c(-c4nc5ncccc5o4)c3)cn2)CC1 [Example 58, 1-[4-[4-(6-amino-5-oxazolo[4,5-b]pyridin-2-yl-3-pyridyl)pyrazol-1-yl]-1-piperidyl]-2-dimethylamino-ethanone] | inhibition at 1 µM: 99.5%
14 | 99.3% | COCCC(=O)N1CCC(n2cc(-c3cnc(N)c(-c4nc5ncccc5o4)c3)cn2)CC1 [Example 59.1] | –
15 | 98.1% | CO[C@H](C)C(=O)N1CCC(n2cc(-c3cnc(N)c(-c4nc5ncccc5o4)c3)cn2)CC1 [Example 59.2] | –
16 | 98.9% | CC(=O)NCC(=O)N1CCC(n2cc(-c3cnc(N)c(-c4nc5ncccc5o4)c3)cn2)CC1 [Example 59.3] | –
17 | 98.9% | CC(=O)NCCC(=O)N1CCC(n2cc(-c3cnc(N)c(-c4nc5ncccc5o4)c3)cn2)CC1 [Example 59.4] | –
18 | 99.7% | COCCOCC(=O)N1CCC(n2cc(-c3cnc(N)c(-c4nc5ncccc5o4)c3)cn2)CC1 [Example 59.5] | –
19 | 99.9% | CN(C)CCC(=O)N1CCC(n2cc(-c3cnc(N)c(-c4nc5ncccc5o4)c3)cn2)CC1 [Example 59.6] | –
20 | 99.6% | CN(C)CC(=O)N1CCC(n2cc(-c3cnc(N)c(-c4nc5cccnc5o4)c3)cn2)CC1 [Example 59.7] | –

Row | % Axl tyrosine kinase inhibition at 1 μM concentration | Compound | also measured
21 | 98.2% | COCCC(=O)N1CCC(n2cc(-c3cnc(N)c(-c4nc5cccnc5o4)c3)cn2)CC1 [Example 59.8] | –
22 | 99.1% | CO[C@H](C)C(=O)N1CCC(n2cc(-c3cnc(N)c(-c4nc5cccnc5o4)c3)cn2)CC1 [Example 59.9] | –
23 | 99.0% | CC(=O)NCCC(=O)N1CCC(n2cc(-c3cnc(N)c(-c4nc5cccnc5o4)c3)cn2)CC1 [Example 59.11] | –
24 | 99.7% | CN(C)CCC(=O)N1CCC(n2cc(-c3cnc(N)c(-c4nc5cccnc5o4)c3)cn2)CC1 [Example 59.13] | –
25 | – | CC(O)c1nn(C2CCNCC2)cc1-c1cnc(N)c(-c2nc3ccccc3o2)c1 (centres unmarked) [Example 60, 1-[4-[6-amino-5-(1,3-benzoxazol-2-yl)-3-pyridyl]-1-(4-piperidyl)pyrazol-3-yl]ethanol] | inhibition at 1 µM: 99.8%
26 | – | Nc1ncc(-c2cnn(C3CCNCC3)c2CO)cc1-c1nc2ccccc2o1 [Example 61, [4-[6-amino-5-(1,3-benzoxazol-2-yl)-3-pyridyl]-2-(4-piperidyl)pyrazol-3-yl]methanol] | inhibition at 1 µM: 99.9%
27 | 100.0% | N#Cc1nn(C2CCNCC2)cc1-c1cnc(N)c(-c2nc3ccccc3o2)c1 [Example 62.1] | –
28 | 98.8% | CN(C)C(=O)c1nn(C2CCNCC2)cc1-c1cnc(N)c(-c2nc3ccccc3o2)c1 [Example 62.2] | –
29 | 99.9% | CN(C)c1nn(C2CCNCC2)cc1-c1cnc(N)c(-c2nc3ccccc3o2)c1 [Example 62.3] | –
30 | 99.8% | CNC(=O)c1nn(C2CCNCC2)cc1-c1cnc(N)c(-c2nc3ccccc3o2)c1 [Example 62.4] | –
31 | 99.5% | NC(=O)c1nn(C2CCNCC2)cc1-c1cnc(N)c(-c2nc3ccccc3o2)c1 [Example 62.5] | –
32 | 100.0% | Nc1ncc(-c2cn(C3CCNCC3)nc2CO)cc1-c1nc2c(F)cccc2o1 [Example 62.6] | –
33 | 100.0% | COCc1nn(C2CCNCC2)cc1-c1cnc(N)c(-c2nc3c(F)cccc3o2)c1 [Example 62.7] | –
34 | 99.8% | Cc1nn(C2CCNCC2)cc1-c1cnc(N)c(-c2nc3c(C#N)cccc3o2)c1 [Example 62.11] | –
35 | 100.0% | COc1cccc2nc(-c3cc(-c4cn(C5CCNCC5)nc4CO)cnc3N)oc12 [Example 62.13] | –
36 | 100.0% | COCc1nn(C2CCNCC2)cc1-c1cnc(N)c(-c2nc3cccc(OC)c3o2)c1 [Example 62.14] | pIC50 (Test (a), read-out: IC50 versus Axl tyrosine kinase): ~10.00
37 | 100.0% | COc1cccc2nc(-c3cc(-c4cn(C5CCNCC5)nc4C)cnc3N)oc12 [Example 62.15] | –
38 | – | CNCc1nn(C2CCN(C(C)=O)CC2)cc1-c1cnc(N)c(-c2nc3ccccc3o2)c1 [Example 63, 1-[4-[4-[6-amino-5-(1,3-benzoxazol-2-yl)-3-pyridyl]-3-(methylaminomethyl)pyrazol-1-yl]-1-piperidyl]ethanone] | inhibition at 1 µM: 98.4%
39 | – | CN1CCC(n2cc(-c3cnc(N)c(-c4nc5cccc(C#N)c5o4)c3)cn2)CC1 [Example 64, 2-[2-amino-5-[1-(1-methyl-4-piperidyl)pyrazol-4-yl]-3-pyridyl]-1,3-benzoxazole-7-carbonitrile] | inhibition at 1 µM: 99.1%
40 | – | CN1CCC(n2cc(-c3cnc(N)c(-c4nc5cccc(CO)c5o4)c3)cn2)CC1 [Example 65, [2-[2-amino-5-[1-(1-methyl-4-piperidyl)pyrazol-4-yl]-3-pyridyl]-1,3-benzoxazol-7-yl]methanol] | inhibition at 1 µM: 100%
